Experimental data from ChEMBL document CHEMBL1146856, “Novel, orally bioavailable gamma-aminoamide CC chemokine receptor 2 (CCR2) antagonists” (J Med Chem, 2006).

Legend:
[1] = target: T1, C-C chemokine receptor type 2 (Homo sapiens, UniProt P41597); test: Inhibition of [125I]MCP1 binding to CCR2 expressed in CHO cells at 1 uM; assay type: cell-based
Target sequence in this assay (P41597 whole entry, looked up): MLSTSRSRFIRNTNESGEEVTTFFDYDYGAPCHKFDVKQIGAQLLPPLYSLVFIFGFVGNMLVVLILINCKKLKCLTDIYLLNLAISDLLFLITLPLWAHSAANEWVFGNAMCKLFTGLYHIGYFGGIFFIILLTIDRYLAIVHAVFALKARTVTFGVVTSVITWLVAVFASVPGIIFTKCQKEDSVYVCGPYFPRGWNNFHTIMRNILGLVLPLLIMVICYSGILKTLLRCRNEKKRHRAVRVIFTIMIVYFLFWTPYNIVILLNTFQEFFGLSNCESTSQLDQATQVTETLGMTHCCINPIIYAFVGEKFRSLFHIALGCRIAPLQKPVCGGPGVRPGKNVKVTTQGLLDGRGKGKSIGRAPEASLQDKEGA

[2] = target: T1, C-C chemokine receptor type 2; test: Inhibition of [125I]MCP1 binding to CCR2 expressed in CHO cells; assay type: cell-based
Target sequence in this assay (P41597 whole entry): as the sequence (P41597 whole entry, looked up) above

Monocyte [3] = test: Inhibition of MCP1-stimulated chemotaxis of human monocyte; assay type: functional, cell-based
Substance-P receptor = Substance-P receptor (Homo sapiens, UniProt P25103); test: Inhibition of NK1
Substance-P receptor, sequence (P25103 whole entry): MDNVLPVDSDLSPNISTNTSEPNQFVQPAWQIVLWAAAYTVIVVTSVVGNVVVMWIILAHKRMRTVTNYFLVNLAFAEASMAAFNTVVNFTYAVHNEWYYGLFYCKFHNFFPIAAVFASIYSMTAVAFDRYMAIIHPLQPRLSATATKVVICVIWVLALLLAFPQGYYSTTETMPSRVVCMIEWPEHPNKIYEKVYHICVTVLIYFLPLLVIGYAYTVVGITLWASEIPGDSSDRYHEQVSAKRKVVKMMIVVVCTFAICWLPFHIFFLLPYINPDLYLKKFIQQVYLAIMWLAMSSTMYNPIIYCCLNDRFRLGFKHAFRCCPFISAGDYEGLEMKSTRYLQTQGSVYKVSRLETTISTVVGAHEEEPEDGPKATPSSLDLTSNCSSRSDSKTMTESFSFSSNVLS

[4] = target: T2, C-C chemokine receptor type 5 (Homo sapiens, UniProt P51681); test: Inhibition of CCR5 at 0.01 uM
Target sequence in this assay (P51681 whole entry, looked up): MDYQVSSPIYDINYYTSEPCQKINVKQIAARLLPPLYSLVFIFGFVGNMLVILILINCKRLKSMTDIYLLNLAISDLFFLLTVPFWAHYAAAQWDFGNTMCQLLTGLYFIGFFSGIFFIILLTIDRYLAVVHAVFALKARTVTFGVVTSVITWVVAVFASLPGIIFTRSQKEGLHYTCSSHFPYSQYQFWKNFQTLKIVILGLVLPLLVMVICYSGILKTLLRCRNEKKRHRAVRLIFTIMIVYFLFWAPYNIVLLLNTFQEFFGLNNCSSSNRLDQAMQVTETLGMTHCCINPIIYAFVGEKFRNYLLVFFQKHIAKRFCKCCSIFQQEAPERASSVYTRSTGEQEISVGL

Monocyte [5] = test: Inhibition of MCP1-stimulated chemotaxis of human monocyte at 1 uM; assay type: functional
[6] = target: T2, C-C chemokine receptor type 5; test: Inhibition of CCR5
Target sequence in this assay (P51681 whole entry): as the sequence (P51681 whole entry, looked up) above

[7] = Oral bioavailability in rat at 3 mg/kg; assay type: ADME, organism-based; settings: in vivo
[8] = Plasma clearance in rat at 3 mg/kg; assay type: ADME, organism-based; set-up: dose 3 mg/kg
[9] = Half life in rat at 3 mg/kg; assay type: ADME, organism-based; set-up: dose 3 mg/kg; settings: in vivo

**Q.** With `O=C(NCc1cc(C(F)(F)F)cc(C(F)(F)F)c1)[C@@H](CCN1CCCC(Cc2ccccc2)C1)c1ccc(F)cc1` (stereo not given in full) as the compound, how does the inhibition [1] read?
**A.** The inhibition was 43%.

**Q.** For `O=C(NCc1cc(C(F)(F)F)cc(C(F)(F)F)c1)[C@@H](CCCN1CCCCC1)c1ccc(F)cc1`, which IC50 [2] is on record?
**A.** The IC50 was 1000 nM.

**Q.** For `O=C(NCc1cc(C(F)(F)F)cc(C(F)(F)F)c1)[C@@H](CCCN1CCC(c2ccccc2)CC1)c1ccc(F)cc1`, which IC50 [2] is on record?
**A.** Its IC50 is 1100 nM.

**Q.** For `C[C@H]1CN(CC[C@H](CNCc2cc(C(F)(F)F)cc(C(F)(F)F)c2)c2ccc(F)cc2)CC[C@@H]1c1ccccc1`, which IC50 [2] is on record?
**A.** Its IC50 is 140 nM.

**Q.** Which IC50 [2] does the source give for `C[C@H]1CN(CC[C@H](C(=O)NCc2cc(C(F)(F)F)cc(C(F)(F)F)c2)c2ccc(F)cc2)CC[C@@]12C=Cc1ccccc12` here?
**A.** Its IC50 is 59 nM.

**Q.** And the IC50 (Monocyte [3])?
**A.** The IC50 was 41 nM.

**Q.** What about the IC50 (Substance-P receptor) of the same compound?
**A.** Its IC50 is 28 nM.

**Q.** What about the inhibition [4] of the same compound?
**A.** Its inhibition is 26%.

**Q.** Which inhibition [1] does the source give for `O=C(NCc1cc(C(F)(F)F)cc(C(F)(F)F)c1)[C@@H](CCN1CCN(c2ccccc2)CC1)c1ccc(F)cc1` here?
**A.** Its inhibition is 11%.

**Q.** Which IC50 [2] does the source give for `CC(C[C@H](C(=O)NCc1cc(C(F)(F)F)cc(C(F)(F)F)c1)c1ccc(F)cc1)N1CCC(c2ccccc2)CC1` (stereo not given in full) here?
**A.** The IC50 was 1500 nM.

**Q.** Which IC50 [2] does the source give for `C[C@](CCN1CCC(c2ccccc2)CC1)(CNCc1cc(C(F)(F)F)cc(C(F)(F)F)c1)c1ccc(F)cc1` here?
**A.** Its IC50 is 1070 nM.

**Q.** With `C[C@@H]1CN(CC[C@H](CNCc2cc(C(F)(F)F)cc(C(F)(F)F)c2)c2ccc(F)cc2)CC[C@@H]1c1ccccc1` as the compound, how does the IC50 [2] read?
**A.** Its IC50 is 700 nM.

**Q.** Which inhibition [1] does the source give for `O=C(NCc1cc(C(F)(F)F)cc(C(F)(F)F)c1)[C@@H](CCN1CC[C@@H]2c3ccccc3CC[C@H]2C1)c1ccc(F)cc1` here?
**A.** The inhibition was 6%.

**Q.** For `C=CCN1CCC(N(CC[C@H](C(=O)NCc2cc(C(F)(F)F)cc(C(F)(F)F)c2)c2ccc(F)cc2)C(=O)OCc2ccccc2)CC1`, which inhibition [1] is on record?
**A.** The inhibition was 14%.

**Q.** With `O=C(NCc1cc(C(F)(F)F)cc(C(F)(F)F)c1)[C@@H](CCN1CCC(c2ccccc2)CC1)c1ccc(F)cc1` as the compound, how does the IC50 [2] read?
**A.** The IC50 was 150 nM.

**Q.** And the inhibition at 1 µM (Monocyte [5])?
**A.** The inhibition at 1 µM was 40%.

**Q.** And the IC50 (Substance-P receptor)?
**A.** Its IC50 is 24 nM.

**Q.** What about the IC50 [6] of the same compound?
**A.** Its IC50 is 72 nM.

**Q.** Which IC50 [2] does the source give for `CN(C)CCN[C@H](C(=O)NCc1cc(C(F)(F)F)cc(C(F)(F)F)c1)c1ccc(F)cc1` here?
**A.** Its IC50 is 720 nM.

**Q.** For `CC1CN(CC[C@H](C(=O)NCc2cc(C(F)(F)F)cc(C(F)(F)F)c2)c2ccc(F)cc2)CCC12C=Cc1ccccc12` (stereo not given in full), which IC50 [2] is on record?
**A.** Its IC50 is 45 nM.

**Q.** Which IC50 [2] does the source give for `O=C(NCc1cc(C(F)(F)F)cc(C(F)(F)F)c1)[C@@H](CCN1CCC2(CCc3ccccc32)CC1)c1ccc(F)cc1` here?
**A.** Its IC50 is 320 nM.

**Q.** Which inhibition [1] does the source give for `O=C(NCc1cc(C(F)(F)F)cc(C(F)(F)F)c1)[C@@H](CCN1CCC(c2ccccc2)C1)c1ccc(F)cc1` (stereo not given in full) here?
**A.** Its inhibition is 44%.

**Q.** Which IC50 [2] does the source give for `O=C(NCc1cc(C(F)(F)F)cc(C(F)(F)F)c1)[C@@H](CCN1CCCCC1)c1ccc(F)cc1` here?
**A.** The IC50 was 1100 nM.

**Q.** Which IC50 [2] does the source give for `CC1CN(CC[C@H](C(=O)NCc2cc(C(F)(F)F)cc(C(F)(F)F)c2)c2ccc(F)cc2)CCN1c1ccccc1` (stereo not given in full) here?
**A.** The IC50 was 780 nM.

**Q.** Which inhibition [1] does the source give for `O=C(NCc1cc(C(F)(F)F)cc(C(F)(F)F)c1)[C@@H](CCN1CCCC(c2ccccc2)CC1)c1ccc(F)cc1` (stereo not given in full) here?
**A.** The inhibition was 3%.

**Q.** For `C[C@@H]1CN(CC[C@H](C(=O)NCc2cc(C(F)(F)F)cc(C(F)(F)F)c2)c2ccc(F)cc2)CC[C@]12C=Cc1ccccc12`, which IC50 [2] is on record?
**A.** Its IC50 is 120 nM.

**Q.** And the IC50 (Monocyte [3])?
**A.** The IC50 was 62 nM.

**Q.** With `O=C(NCc1cc(C(F)(F)F)cc(C(F)(F)F)c1)[C@@H](CCN1CC(c2ccccc2)C1)c1ccc(F)cc1` as the compound, how does the inhibition [1] read?
**A.** Its inhibition is 18%.

**Q.** For `CCC1CN(CC[C@H](C(=O)NCc2cc(C(F)(F)F)cc(C(F)(F)F)c2)c2ccc(F)cc2)CCC12C=Cc1ccccc12` (stereo not given in full), which IC50 [2] is on record?
**A.** Its IC50 is 440 nM.

**Q.** Which inhibition [1] does the source give for `O=C(NCc1cc(C(F)(F)F)cc(C(F)(F)F)c1)[C@@H](CCN1CCC(C2CCCCC2)CC1)c1ccc(F)cc1` here?
**A.** The inhibition was 20%.

**Q.** Which results are given for `O=C(NCc1cc(C(F)(F)F)cc(C(F)(F)F)c1)[C@@H](CCN1CCC2(C=Cc3ccccc32)CC1)c1ccc(F)cc1`?
**A.** IC50 [2]: 80 nM; IC50 (Monocyte [3]): 176 nM; IC50 (Substance-P receptor): 50 nM; IC50 [6]: 30 nM; bioavailability [7]: 38%; clearance [8]: 6 mL/min/kg; half-life [9]: 8 h

**Q.** Which IC50 [2] does the source give for `O=C(NCc1cc(C(F)(F)F)cc(C(F)(F)F)c1)[C@@H](CCN1CCC(c2ccsc2)CC1)c1ccc(F)cc1` here?
**A.** The IC50 was 160 nM.

**Q.** For `CC(CN1CCC(c2ccccc2)CC1)[C@H](CNCc1cc(C(F)(F)F)cc(C(F)(F)F)c1)c1ccc(F)cc1` (stereo not given in full), which inhibition [1] is on record?
**A.** Its inhibition is 0%.

**Q.** Which IC50 [2] does the source give for `O=C(NCc1cc(C(F)(F)F)cc(C(F)(F)F)c1)[C@H](CCN1CCC(c2ccccc2)CC1)c1ccc(F)cc1` here?
**A.** The IC50 was 930 nM.
